US8173682B2, “Substituted pyridones as inhibitors of poly(ADP-ribose) polymerase (PARP)” (Aventis Pharmaceuticals Inc., priority 2004, dated 2012)
Structures can show the parent of a compound that is named as a salt.

Legend:
[1] = test system: intracellular synthesis of poly(ADP-ribose) in HL60 cells; assay: Cell-based PARP assay (poly(ADP-ribose) immunodetection in fixed cells); conditions: Homo sapiens, HL-60, overnight incubation with compound, serum-free media
Experimental: The following example illustrates the efficacy of the compounds of this invention in inhibiting the effects of PARP in a cell based assay.
Reagents: Media RMPI 1640+Glutamax: Gibco 61870-044); TBST/milk, TBST (Sigma T93039) containing 5% skimmed milk (Nestle Carnation nonfat dry milk)
HL60 cells at […] in serum free media are seeded into the wells of a 96-well plate at 100 μL/well. The plate is pre-incubated for 3 hr under normal tissue culture conditions. One hundred μL of serum-free media containing compound at 2× the required concentration in 0.6% DMSO are added (or 0.6% DMSO only to controls and blanks). The plate is incubated overnight under normal tissue culture conditions, then centrifuged at 190×g for 5 min at 4° C. to pellet cells. The media is carefully removed by aspiration, and the cells are incubated in 100 μL/well ice-cold 0.56% KCl for 2 min on ice. The plate is centrifuged as above to pellet cells, the KCl removed by aspiration, and 100 μL/well ice-cold methanol added. After 4 min on ice, methanol is removed by aspiration and the cells air-dried for 10-15 min at rt. The cells are washed with PBS×3, then washed with TBST/milk (1 wash, 5 min incubation at rt). The cells are incubated with 100 μL/well 0.25% Triton X 100 in PBS for 10 min at RT, then washed x# with PBS and ×1 with TBST. The cells are blocked for 1 hr with TBST/milk (200 μL/well) and then washed ×1 with TBST. The fixed cells are incubated with primary antibody (Calbiochem cat no. 528815) at 1:2000 dilution in TBST/milk (100 μL/well, overnight at 4 deg C.). The cells are washed with TBST (2 rinses, 1×15 min, 2×5 min at RT). The cells are incubated with secondary antibody (anti-rabbit Ig-biotin conjugate, Amersham RPN1004) in TBST/milk at 1:3500 dilution, 100 μL/well for 1 hr at RT. The cells are washed with TBST (2 rinses, 1×15 min, 2×5 min at RT). The cells are then incubated with 100 μL/well of 4-MUP (Sigma, M3168) in the dark for 4 hrs. The fluorescence is read using a plate reader (excitation at 360 nm, emission at 440 nm). To calculate compound effects, the fluorescence of the blank (no cells) is subtracted from all data. Fluorescence obtained with a standard cell-permeable potent inhibitor at 30 μM is subtracted from all other groups as this appears to represent a true blank. Compound effects can then be determined: a PARP inhibitor blocks the intracellular synthesis of poly(ADP-ribose), and results in a decreased reactivity (reduced final fluorescence) with primary antibody in the fixed and permeabilized cells.
The results obtained from this study are expressed as EC50 (median effective concentration of the test compound that was effective in preventing the cell death—expressed in micromolar (μM) concentration) for each of the tested compounds and are summarized in Table 2.

[2] = target: T1, recombinant human PARP (PARP1) (Homo sapiens, UniProt P09874); assay: PARP enzyme assay, Method A (radioactivity or 'ELISA' enzyme assay with partially purified enzyme); assay type: biochemical; conditions: recombinant human PARP preparation, radioactive or ELISA enzyme assay
T1 construct: Full length human PARP (PARP1) is assembled from PCR fragments; His6 tag with TEV site, from the pFastBac-HTb vector (own knowledge of the vector); made in house; host or cells: insect cells, baculovirus (Bac-to-Bac, Gibco-BRL)
Method in brief: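 Partially purified recombinant full-length His-tagged human PARP1, baculovirus-expressed. Radioactive format: 100 μg/mL sonicated DNA, 100 μg/mL histones, 100 mM Tris pH 8.0, 10 mM MgCl2, 200 μM labeled NAD, 10 min 37 °C or 60 min RT, TCA-precipitated counts. ELISA format: 250 μM NAD plus biotin-NAD on histone plates, TMB A450.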

T1 sequence (P09874 whole entry, the tested form may be a part): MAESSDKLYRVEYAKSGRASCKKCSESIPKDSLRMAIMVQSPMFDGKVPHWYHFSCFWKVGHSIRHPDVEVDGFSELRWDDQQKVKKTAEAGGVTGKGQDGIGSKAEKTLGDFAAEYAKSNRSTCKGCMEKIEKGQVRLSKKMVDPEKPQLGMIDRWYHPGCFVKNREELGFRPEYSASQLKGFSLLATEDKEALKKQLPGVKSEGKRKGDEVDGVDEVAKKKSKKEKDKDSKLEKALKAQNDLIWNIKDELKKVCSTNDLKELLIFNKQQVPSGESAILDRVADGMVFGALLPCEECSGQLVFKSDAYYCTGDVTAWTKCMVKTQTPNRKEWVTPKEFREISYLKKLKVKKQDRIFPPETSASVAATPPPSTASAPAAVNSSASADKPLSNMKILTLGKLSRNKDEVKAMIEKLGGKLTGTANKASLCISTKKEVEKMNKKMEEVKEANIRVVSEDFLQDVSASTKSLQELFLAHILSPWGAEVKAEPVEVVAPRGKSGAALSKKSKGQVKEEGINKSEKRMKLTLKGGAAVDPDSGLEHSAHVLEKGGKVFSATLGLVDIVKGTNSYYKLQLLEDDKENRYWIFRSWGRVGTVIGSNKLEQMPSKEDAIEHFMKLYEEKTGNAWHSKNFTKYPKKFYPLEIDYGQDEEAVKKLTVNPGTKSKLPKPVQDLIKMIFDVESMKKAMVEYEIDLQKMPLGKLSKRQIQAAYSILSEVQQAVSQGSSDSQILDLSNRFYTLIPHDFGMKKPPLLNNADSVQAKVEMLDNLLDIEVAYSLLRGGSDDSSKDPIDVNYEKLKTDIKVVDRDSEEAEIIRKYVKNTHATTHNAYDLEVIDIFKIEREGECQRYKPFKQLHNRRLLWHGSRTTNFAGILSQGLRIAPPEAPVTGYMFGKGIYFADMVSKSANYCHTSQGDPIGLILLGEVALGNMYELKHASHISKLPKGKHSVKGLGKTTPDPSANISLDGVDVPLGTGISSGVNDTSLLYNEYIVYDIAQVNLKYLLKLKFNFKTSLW

Row | Structure (SMILES) | EC50 [1] [nM] | IC50 [2] [µM]
1 | CCc1cc(-c2ccc(S(=O)(=O)N3CCCC(Cn4ccnc4)C3)s2)c(C)[nH]c1=O (stereo not shown) [Example 70, 3-Ethyl-5-{5-[(3-imidazo-1-yl)methylpiperidine-1-sulfonyl]thiophene-2-yl}-6-methyl-1H-pyridin-2-one hydrochloride] | 260 | 0.26
2 | CCc1cc(-c2ccc(CNCC3CCCCC3)s2)c(C)[nH]c1=O [Example 143, 5-(5-Cyclohexylmethylaminomethylthiophen-2-yl)-3-ethyl-6-methyl-1H-pyridin-2-one hydrochloride] | 1430 | 0.39
3 | CCc1cc(-c2ccc(S(=O)(=O)NCc3cc(F)cc(F)c3)s2)c(C)[nH]c1=O [Example 27, 5-(5-Ethyl-2-methyl-6-oxo-1,6-dihydropyridin-3-yl)thiophene-2-sulfonic acid 3,5-difluorobenzylamide] | 14200 | 0.1
4 | CCc1cc(-c2ccc(S(=O)(=O)NCCNC(C)=O)s2)c(C)[nH]c1=O [Example 119, N-{2-[5-(5-Ethyl-2-methyl-6-oxo-1,6-dihydropyridin-3-yl)thiophene-2-sulfonylamino]ethyl}acetamide] | 800 | 0.38
5 | CCc1cc(-c2ccc(S(=O)(=O)N3CCN(c4ccc(F)cc4)CC3)s2)c(C)[nH]c1=O [Example 25, 3-Ethyl-5-{5-[4-(4-fluorophenyl)piperazine-1-sulfonyl]thiophen-2-yl}-6-methyl-1H-pyridin-2-one] | 4880 | 0.76
6 | CCc1cc(-c2ccc(S(=O)(=O)NCCCN3CCCCC3)s2)c(C)[nH]c1=O [Example 63, 5-(5-Ethyl-2-methyl-6-oxo-1,6-dihydro-pyridin-3-yl)-thiophene-2-sulfonic acid (3-piperidin-1-yl-propyl)-amide hydrochloride] | 430 | 0.42
7 | CCc1cc(-c2ccc(CNCCOc3ccccc3)s2)c(C)[nH]c1=O [Example 146, 3-Ethyl-6-methyl-5-{5-[(2-phenoxyethylamino)-methyl]thiophen-2-yl}-1H-pyridin-2-one hydrochloride] | 970 | 0.24
8 | CCc1cc(-c2ccc(S(=O)(=O)NCCN(C)C)s2)c(C)[nH]c1=O [Example 93, 5-(5-Ethyl-2-methyl-6-oxo-1,6-dihydropyridin-3-yl)thiophene-2-sulfonic acid (2-dimethylaminoethyl)amide hydrochloride] | 560 | 0.85
9 | CCc1cc(-c2ccc(S(=O)(=O)NC3CCN(Cc4ccccc4)CC3)s2)c(C)[nH]c1=O [Example 39, 5-(5-Ethyl-2-methyl-6-oxo-1,6-dihydropyridin-3-yl)thiophene-2-sulfonic acid (1-benzylpiperidin-4-yl)amide hydrochloride] | 500 | 0.07
10 | CCc1cc(-c2ccc(S(=O)(=O)N3CCC(O)C3)s2)c(C)[nH]c1=O (stereo not shown) [Example 85, 3-Ethyl-5-[5-(3-hydroxypyrrolidine-1-sulfonyl)thiophen-2-yl]-6-methyl-1H-pyridin-2-one] | 330 | 0.31
11 | CCc1cc(-c2noc(C)n2)c(C)[nH]c1=O [Example 22, 3-Ethyl-6-methyl-5-(5-methyl-1,2,4-oxadiazol-3-yl)-1H-pyridin-2-one] | 120 | 0.31
12 | CCc1cc(-c2ccc(S(=O)(=O)NCCc3cccnc3)s2)c(C)[nH]c1=O [Example 107, 5-(5-Ethyl-2-methyl-6-oxo-1,6-dihydropyridin-3-yl)thiophene-2-sulfonic acid (2-pyridin-3-yl-ethyl)amide hydrochloride] | 30 | 0.08
13 | CCc1cc(-c2ccc(S(=O)(=O)NCc3ccc(C(F)(F)F)cc3)s2)c(C)[nH]c1=O [Example 26, 5-(5-Ethyl-2-methyl-6-oxo-1,6-dihydropyridin-3-yl)thiophene-2-sulfonic acid 4-trifluoromethylbenzylamide] | 2940 | 0.19
14 | CCc1cc(-c2ccc(CN3CCCCC3)s2)c(C)[nH]c1=O [Example 148, 3-ethyl-6-methyl-5-(5-piperidin-1-ylmethy-thiophen-2-yl)-1H-pyridin-2-one hydrochloride] | 520 | 0.41
